Literature values in patent publication US6858612B1, “Use of tetrahydropteridine derivatives as no synthase inhibitors” (Vasopharm Buitech GmbH, priority 1994, dated 2005).

Tested on: NO synthases

| Compound | effect on NO production (literature reports (Kwon et al., Giovanelli et al., Overfeld et al.), concentration-dependent) | effect on NO synthase activity (Hevel and Marletta, Giovanelli et al. only at relatively high concentrations) |
| --- | --- | --- |
| C[C@H](O)[C@H](O)C1=Nc2c(nc(N)[nH]c2=O)NC1 [7,8-dihydrobiopterin] | Stimulation of NO production |  |
| CC1CNc2nc(N)[nH]c(=O)c2N1 (centres unmarked) [6-methyl-5,6,7,8-tetrahydropterin] |  | increase in NO synthase activity |
